Measurements: patent US6479435B1, “Diaryl ethers and processes for their preparation and herbicidal and desiccant compositions containing them” (ISK Americas Incorporated, priority 1997, dated 2002)

Columns and labels:
Type in all cases: in vivo
[1] = system: soybean (Glycine max L., var. Pella 86, SOY); assay: Pre-emerge greenhouse test, crop damage rating; conditions: 14 days after application, rating scale 0-100
Procedure, shortened: (§1)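 Seeds sown in sandy loam one day before track-sprayer application of acetone solutions at 125–1000 g ai/ha (187 l/ha), then surface-watered to incorporate and bottom-watered. Injury scored visually at 14 days on a 0–100 scale (0 no damage, 100 complete death).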

[2] = system: upland rice (Oryza sp., var.Tebonnet, RICE); assay: Pre-emerge greenhouse test, crop damage rating; conditions: 14 days after application, rating scale 0-100
Procedure, shortened: as §1

[3] = system: field corn (Zea mays L., var. Dekalb 535, CORN); assay: Pre-emerge greenhouse test, crop damage rating; conditions: 14 days after application, rating scale 0-100
Procedure, shortened: as §1

[4] = system: soybean (Glycine max L., var. Pella 86, SOY); assay: Post-emerge greenhouse test, crop damage rating; conditions: 14 days after application
Procedure, shortened: (§2)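 Plants at the 2-3 leaf stage, sown 8-21 days earlier, were track-sprayed post-emergence with compound in acetone plus 0.25% v/v non-ionic surfactant at 63-1000 g ai/ha (187 l/ha). Damage was rated at 14 days on a 0-100 scale (0 none, 100 all plants dead), for both crop injury and weed control.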

[5] = system: redroot pigweed (Amaranthus retroflexus, AMARE); assay: Post-emerge greenhouse herbicide test, phytotoxicity rating; conditions: 14 days after application
Procedure, shortened: as §2

[6] = system: large crabgrass (Digitaria sanguinalis, DIGSA); assay: as above; conditions: 14 days after application
Procedure, shortened: as §2

[7] = system: sicklepod (Cassia obtusifolia, CASOB); assay: as above; conditions: 14 days after application
Procedure, shortened: as §2

[8] = system: Johnsongrass (Sorghum halepense, SORHA); assay: as above; conditions: 14 days after application
Procedure, shortened: as §2

[9] = system: lambsquarters (Chenopodium album, CHEAL); assay: as above; conditions: 14 days after application
Procedure, shortened: as §2

[10] = system: green foxtail (Setaria viridis, SETVI); assay: as above; conditions: 14 days after application
Procedure, shortened: as §2

[11] = system: velvetleaf (Abutilon theophrasti, ABUTH); assay: as above; conditions: 14 days after application
Procedure, shortened: as §2

[12] = system: barnyardgrass (Echinochloa crusgalli, ECHCG); assay: as above; conditions: 14 days after application
Procedure, shortened: as §2

[13] = system: ivyleaf morningglory (Ipomoea hederacea, IPOHE); assay: as above; conditions: 14 days after application
Procedure, shortened: as §2

[14] = system: redroot pigweed (Amaranthus retroflexus, AMARE); assay: Pre-emerge greenhouse herbicide test, phytotoxicity rating; conditions: 14 days after application, rating scale 0-100
Procedure, shortened: as §1

[15] = system: large crabgrass (Digitaria sanguinalis, DIGSA); assay: as above; conditions: 14 days after application, rating scale 0-100
Procedure, shortened: as §1

[16] = system: sicklepod (Cassia obtusifolia, CASOB); assay: as above; conditions: 14 days after application, rating scale 0-100
Procedure, shortened: as §1

[17] = system: Johnsongrass (Sorghum halepense, SORHA); assay: as above; conditions: 14 days after application, rating scale 0-100
Procedure, shortened: as §1

[18] = system: lambsquarters (Chenopodium album, CHEAL); assay: as above; conditions: 14 days after application, rating scale 0-100
Procedure, shortened: as §1

[19] = system: green foxtail (Setaria viridis, SETVI); assay: as above; conditions: 14 days after application, rating scale 0-100
Procedure, shortened: as §1

[20] = system: velvetleaf (Abutilon theophrasti, ABUTH); assay: as above; conditions: 14 days after application, rating scale 0-100
Procedure, shortened: as §1

[21] = system: barnyardgrass (Echinochloa crusgalli, ECHCG); assay: as above; conditions: 14 days after application, rating scale 0-100
Procedure, shortened: as §1

[22] = system: common ragweed (Ambrosia artemisiifolia L., AMBEL); assay: as above; conditions: 14 days after application, rating scale 0-100
Procedure, shortened: as §1

[23] = system: ivyleaf morningglory (Ipomoea hederacea, IPOHE); assay: as above; conditions: 14 days after application, rating scale 0-100
Procedure, shortened: as §1

[24] = system: upland rice (Oryza sp., var.Tebonnet, RICE); assay: Post-emerge greenhouse test, crop damage rating; conditions: 14 days after application
Procedure, shortened: as §2

[25] = system: field corn (Zea mays L., var. Dekalb 535, CORN); assay: Post-emerge greenhouse test, crop damage rating; conditions: 14 days after application
Procedure, shortened: as §2

[26] = system: common ragweed (Ambrosia artemisiifolia L., AMBEL); assay: Post-emerge greenhouse herbicide test, phytotoxicity rating; conditions: 14 days after application
Procedure, shortened: as §2

O=c1n(-c2cc(Oc3ccccc3)c(Cl)cc2F)c(=S)n2n1CCCC2 [Compound 8-5]
5: crop damage rating CORN ([3]; 500 g ai/ha) | CORN crop damage rating (0-100) ([25]; 63 g al/ha)
10: SORHA phytotoxicity rating (0-100) ([8]; 63 g al/ha) | RICE crop damage rating (0-100) ([24]; 500 g al/ha)
55: CASOB phytotoxicity rating (0-100) ([7]; 63 g al/ha) | ECHCG phytotoxicity rating (0-100) ([12]; 500 g al/ha) | AMBEL phytotoxicity rating (0-100) ([26]; 63 g al/ha)
40: crop damage rating SOY ([1]; 500 g ai/ha) | phytotoxicity rating DIGSA ([15]; 125 g ai/ha) | phytotoxicity rating AMBEL ([22]; 125 g ai/ha)
25: crop damage rating RICE ([2]; 500 g ai/ha)
65: SETVI phytotoxicity rating (0-100) ([10]; 500 g al/ha)
20: ECHCG phytotoxicity rating (0-100) ([12]; 63 g al/ha) | phytotoxicity rating SORHA ([17]; 125 g ai/ha) | CORN crop damage rating (0-100) ([25]; 500 g al/ha)
80: phytotoxicity rating SETVI ([19]; 125 g ai/ha)
0: crop damage rating SOY ([1]; 125 g ai/ha) | crop damage rating RICE ([2]; 125 g ai/ha) | crop damage rating CORN ([3]; 125 g ai/ha) | DIGSA phytotoxicity rating (0-100) ([6]; 63 g al/ha) | phytotoxicity rating ECHCG ([21]; 125 g ai/ha) | phytotoxicity rating IPOHE ([23]; 125 g ai/ha) | RICE crop damage rating (0-100) ([24]; 63 g al/ha)
30: SETVI phytotoxicity rating (0-100) ([10]; 63 g al/ha) | phytotoxicity rating CASOB ([16]; 125 g ai/ha) | phytotoxicity rating SORHA ([17]; 500 g ai/ha)
50: SOY crop damage rating (0-100) ([4]; 63 g al/ha)
100: AMARE phytotoxicity rating (0-100) ([5]; 63 g al/ha) | AMARE phytotoxicity rating (0-100) ([5]; 500 g al/ha) | CASOB phytotoxicity rating (0-100) ([7]; 500 g al/ha) | CHEAL phytotoxicity rating (0-100) ([9]; 63 g al/ha) | CHEAL phytotoxicity rating (0-100) ([9]; 500 g al/ha) | ABUTH phytotoxicity rating (0-100) ([11]; 63 g al/ha) | ABUTH phytotoxicity rating (0-100) ([11]; 500 g al/ha) | IPOHE phytotoxicity rating (0-100) ([13]; 500 g al/ha) | phytotoxicity rating AMARE ([14]; 500 g ai/ha) | phytotoxicity rating CHEAL ([18]; 125 g ai/ha) | phytotoxicity rating CHEAL ([18]; 500 g ai/ha) | phytotoxicity rating SETVI ([19]; 500 g ai/ha) | phytotoxicity rating ABUTH ([20]; 125 g ai/ha) | phytotoxicity rating ABUTH ([20]; 500 g ai/ha) | phytotoxicity rating AMBEL ([22]; 500 g ai/ha) | AMBEL phytotoxicity rating (0-100) ([26]; 500 g al/ha)
90: IPOHE phytotoxicity rating (0-100) ([13]; 63 g al/ha)
85: SOY crop damage rating (0-100) ([4]; 500 g al/ha) | phytotoxicity rating DIGSA ([15]; 500 g ai/ha)
60: SORHA phytotoxicity rating (0-100) ([8]; 500 g al/ha) | phytotoxicity rating ECHCG ([21]; 500 g ai/ha)
95: phytotoxicity rating AMARE ([14]; 125 g ai/ha) | phytotoxicity rating CASOB ([16]; 500 g ai/ha)
70: DIGSA phytotoxicity rating (0-100) ([6]; 500 g al/ha) | phytotoxicity rating IPOHE ([23]; 500 g ai/ha)

O=c1n(-c2cc(Oc3ccccc3[N+](=O)[O-])c(Cl)cc2F)c(=S)n2n1CCCC2 [Compound 8-6]
10: crop damage rating RICE ([2]; 125 g ai/ha) | ECHCG phytotoxicity rating (0-100) ([12]; 63 g al/ha)
95: phytotoxicity rating CASOB ([16]; 500 g ai/ha) | phytotoxicity rating SETVI ([19]; 125 g ai/ha)
40: crop damage rating SOY ([1]; 500 g ai/ha) | crop damage rating RICE ([2]; 500 g ai/ha) | phytotoxicity rating DIGSA ([15]; 125 g ai/ha) | phytotoxicity rating AMBEL ([22]; 125 g ai/ha)
20: crop damage rating SOY ([1]; 125 g ai/ha) | phytotoxicity rating SORHA ([17]; 125 g ai/ha) | phytotoxicity rating ECHCG ([21]; 125 g ai/ha) | CORN crop damage rating (0-100) ([25]; 500 g al/ha)
5: RICE crop damage rating (0-100) ([24]; 63 g al/ha) | CORN crop damage rating (0-100) ([25]; 63 g al/ha)
30: DIGSA phytotoxicity rating (0-100) ([6]; 500 g al/ha) | SORHA phytotoxicity rating (0-100) ([8]; 500 g al/ha) | SETVI phytotoxicity rating (0-100) ([10]; 63 g al/ha) | ECHCG phytotoxicity rating (0-100) ([12]; 500 g al/ha)
60: CASOB phytotoxicity rating (0-100) ([7]; 63 g al/ha) | AMBEL phytotoxicity rating (0-100) ([26]; 63 g al/ha)
50: phytotoxicity rating SORHA ([17]; 500 g ai/ha) | phytotoxicity rating ECHCG ([21]; 500 g ai/ha) | phytotoxicity rating IPOHE ([23]; 125 g ai/ha) | RICE crop damage rating (0-100) ([24]; 500 g al/ha)
70: SOY crop damage rating (0-100) ([4]; 63 g al/ha)
99: CHEAL phytotoxicity rating (0-100) ([9]; 500 g al/ha)
90: SOY crop damage rating (0-100) ([4]; 500 g al/ha) | CHEAL phytotoxicity rating (0-100) ([9]; 63 g al/ha) | SETVI phytotoxicity rating (0-100) ([10]; 500 g al/ha) | IPOHE phytotoxicity rating (0-100) ([13]; 63 g al/ha) | phytotoxicity rating IPOHE ([23]; 500 g ai/ha) | AMBEL phytotoxicity rating (0-100) ([26]; 500 g al/ha)
0: crop damage rating CORN ([3]; 125 g ai/ha) | crop damage rating CORN ([3]; 500 g ai/ha) | DIGSA phytotoxicity rating (0-100) ([6]; 63 g al/ha) | SORHA phytotoxicity rating (0-100) ([8]; 63 g al/ha)
100: AMARE phytotoxicity rating (0-100) ([5]; 63 g al/ha) | AMARE phytotoxicity rating (0-100) ([5]; 500 g al/ha) | CASOB phytotoxicity rating (0-100) ([7]; 500 g al/ha) | ABUTH phytotoxicity rating (0-100) ([11]; 63 g al/ha) | ABUTH phytotoxicity rating (0-100) ([11]; 500 g al/ha) | IPOHE phytotoxicity rating (0-100) ([13]; 500 g al/ha) | phytotoxicity rating AMARE ([14]; 125 g ai/ha) | phytotoxicity rating AMARE ([14]; 500 g ai/ha) | phytotoxicity rating DIGSA ([15]; 500 g ai/ha) | phytotoxicity rating CASOB ([16]; 125 g ai/ha) | phytotoxicity rating CHEAL ([18]; 125 g ai/ha) | phytotoxicity rating CHEAL ([18]; 500 g ai/ha) | phytotoxicity rating SETVI ([19]; 500 g ai/ha) | phytotoxicity rating ABUTH ([20]; 125 g ai/ha) | phytotoxicity rating ABUTH ([20]; 500 g ai/ha) | phytotoxicity rating AMBEL ([22]; 500 g ai/ha)
